In general, inhibition refers to the percentage by which the read-out fell short of the control.

Common to all, as to type: cell-based
Test [1] has as its system IL-6 (THP-1 human monocyte cell line). In words: IL-6 inhibition in LPS-stimulated THP-1 cells (HTRF). As to conditions: for EC50: IL-6 inhibition, LPS-stimulated THP-1 cells, HTRF; for inhibition at 10 µM: THP-1, read-out: percentage in parentheses beside EC50 >10 (IL-6 inhibition). A digest of the protocol: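 After 24 h in 1% FBS medium, cells had compound 2 h before 500 ng/mL LPS, then 22 h more at 37 °C. DMSO-normalized HTRF signal (665/620 nm ratio, anti-IL-6 antibody pair) was fitted with a variable-slope four-parameter model to give EC50.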
For orientation: In TR-FRET formats the signal depends on donor and acceptor labels being close together.

The next test concerns SW480 colon cancer cells. In words: Cell viability assay (CellTiter-Blue), SW480 cells, four days. The conditions noted are these: Homo sapiens; for EC50: 96 h, SW480 cell viability, four days, CellTiter-Blue; for inhibition at 10 µM: SW480, read-out: percent inhibition at 10 μM. In a few lines:
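Fluorescence from resazurin reduced to resorufin by metabolically active cells was the read-out, taken after ~3 h with CellTiter-Blue.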

In test [2] the test system is Wnt activity (Sp5-Luc reporter, SW480 colon carcinoma cells). The experiment in a line: Wnt activity screening assay, Sp5-Luc reporter gene in SW480 cells. The conditions noted are these: Homo sapiens; for inhibition at 10 µM: SW480, read-out: percent inhibition at 10 μM; for EC50: Sp5-Luc reporter, SW480 cells, overnight incubation. In a few lines:
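Read-out is BrightGlo luminescence, normalized to DMSO-treated cells and fitted by four-parameter variable-slope regression for EC50. Reporter cells: SW480 colon carcinoma carrying a stable lentiviral Sp5-Luc construct with eight TCF/LEF sites, seeded 4,000/well in 1% FBS, incubated overnight at 37° C.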

Test [3] has as its system primary human fibroblasts derived from IPF patients (LL29 cells) treated with TGF-β1. In words: Inhibition of the fibrotic process: αSMA staining in TGF-β1 treated LL29 fibroblasts. As to conditions: Fibroblast; for EC50: 96 h, LL29 cells, TGF-β1 20 ng/mL, 4 days, % αSMA positive cells; for inhibition at 10 µM: read-out: percent inhibition at 10 μM. In a few lines: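 Read-out after 4-day incubation: αSMA staining with 1 μM SYTOX green nuclear counterstain (30 min, room temperature). Cells were LL29 primary fibroblasts from IPF patients, in 1% FBS F12, exposed to TGF-β1 with test compound, referenced to TGF-β1/DMSO control wells.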

The test system of test [4] is primary human mesenchymal stem cells (hMSCs). The experiment in a line: Induction of chondrogenesis in human mesenchymal stem cells (nodule area, Rhodamine B/Nile Red). The conditions noted are these: hMSC chondrogenesis; for EC50: concentration required to induce 50% levels of chondrogenesis of TGF-β3 positive control, read-out: Conc (nM) of 50% TGF-β3 activity; for Emax: relative to TGF-β3 (10 ng/mL) positive control, read-out: Max. Activity as % TGF-β3 activity. The source says:
Representative compounds were screened using primary human mesenchymal stem cells (hMSCs) to determine their ability to induce chondrogenesis (process by which cartilage is developed).
Primary human mesenchymal stem cells (hMSCs) were purchased from Lonza (Walkersville, Md.) and expanded in Mesenchymal Stem Cell Growth Media (Lonza). Cells between passage 3 and 6 were used for the experiments.
Area of nodules in each well was normalized to the average of 3 DMSO treated wells on the same plate using Excel (Microsoft Inc.). The normalized averages (fold change over DMSO) of 2 or 3 replicate wells for each compound concentration were calculated. Due to solubility limitations of some of the compounds, curve fitting was incomplete leading to inaccurate EC50 determinations.
Using TGF-β3 as a positive control, the concentration of representative compounds required to induce 50% levels of chondrogenesis is reported. In addition, the maximum activity of each compound and the respective dose that each compound reached maximum chondrogenesis activity is reported.

Some results are limits rather than exact numbers.

Consider `O=C(Nc1cncc(-c2ccc3[nH]nc(-c4cc5c(-c6ccncc6)ccnc5[nH]4)c3c2)c1)C1CCC1` [Compound 133, N-(5-(3-(4-(Pyridin-4-yl)-1H-pyrrolo[2,3-b]pyridin-2-yl)-1H-indazol-5-yl)pyridin-3-yl)cyclobutanecarboxamide], for which the EC50 in test [1] was above 10000 nM; in the test on SW480 colon cancer cells it was above 10000 nM; in test [2], above 10000 nM; in test [3] it was above 10000 nM; in test [4] it was 900 nM. The inhibition at 10 µM in test [1] came out at 33.3%; in the test on SW480 colon cancer cells it was 6.4%; in test [2], 2.8%; in test [3], 0%. The Emax in test [4] is 73%.
`c1cc(-c2ccnc3[nH]c(-c4n[nH]c5ccc(-c6cncnc6)cc45)cc23)ccn1` [Compound 139, 3-(4-(Pyridin-4-yl)-1H-pyrrolo[2,3-b]pyridin-2-yl)-5-(pyrimidin-5-yl)-1H-indazole]: the EC50 (in test [1]; in the test with SW480 colon cancer cells; in test [2]; in test [3]) was above 10000 nM in each case. The inhibition at 10 µM amounted to 43.1% in test [1], 5.3% with SW480 colon cancer cells, 7.5% in test [2] and 14.5% in test [3]. The Emax in test [4] was determined as 17%.
For `Nc1cncc(-c2ccc3[nH]nc(-c4cc5c(-c6ccccn6)ccnc5[nH]4)c3c2)c1` [Compound 143, 5-(3-(4-(Pyridin-2-yl)-1H-pyrrolo[2,3-b]pyridin-2-yl)-1H-indazol-5-yl) pyridin-3-amine], the EC50 in test [1] came out at 83 nM; with SW480 colon cancer cells, 89 nM; in test [2], 22 nM; in test [3] it was 45 nM. Also, the Emax in test [4] was determined as 46%.
As for `CN(C)c1cncc(-c2ccc3[nH]nc(-c4cc5c(-c6ccccn6)ccnc5[nH]4)c3c2)c1` [Compound 147, N,N-Dimethyl-5-(3-(4-(pyridin-2-yl)-1H-pyrrolo[2,3-b]pyridin-2-yl)-1H-indazol-5-yl)pyridin-3-amine], the EC50 in test [1] is above 10000 nM; in the test with SW480 colon cancer cells, above 10000 nM; in test [2], above 10000 nM; in test [3], above 10000 nM; in test [4], 10 nM. Besides, the inhibition at 10 µM was 30.5% in test [1], 15.4% with SW480 colon cancer cells, 13.7% in test [2] and 34% in test [3]. The Emax in test [4] amounted to 77%.
As for `Nc1cncc(-c2ccc3[nH]nc(-c4cc5c(N6CCCCC6)ccnc5[nH]4)c3c2)c1` [Compound 171, 5-(3-(4-(Piperidin-1-yl)-1H-pyrrolo[2,3-b]pyridin-2-yl)-1H-indazol-5-yl) pyridin-3-amine], the EC50 in test [1] is 622 nM; in the test with SW480 colon cancer cells, 1230 nM; in test [2] it was 604 nM; in test [3], 1720 nM; in test [4], 30 nM. Besides, in test [4], the Emax stood at 130%.
With `c1cncc(-c2ccc3[nH]nc(-c4cc5c(N6CCCCC6)ccnc5[nH]4)c3c2)c1` [Compound 172, 3-(4-(Piperidin-1-yl)-1H-pyrrolo[2,3-b]pyridin-2-yl)-5-(pyridin-3-yl)-1H-indazole], the EC50 in test [1] was above 10000 nM; with SW480 colon cancer cells, above 10000 nM; in test [2], above 10000 nM; in test [3], above 10000 nM; in test [4], 2700 nM. The inhibition at 10 µM turned out to be 31.8% in test [1], 8.9% in the test with SW480 colon cancer cells, 48.2% in test [2] and 25.1% in test [3]. The Emax in test [4] was determined as 162%.
In the case of `c1cc(N2CCCCC2)c2cc(-c3n[nH]c4ccc(-c5cncc(CN6CCCC6)c5)cc34)[nH]c2n1` [Compound 182, 3-(4-(Piperidin-1-yl)-1H-pyrrolo[2,3-b]pyridin-2-yl)-5-(5-(pyrrolidin-1-ylmethyl)pyridin-3-yl)-1H-indazole], the EC50 is 315 nM in test [1], 4080 nM in the test with SW480 colon cancer cells, above 10000 nM in test [2] and 7760 nM in test [3]. Further, in test [2], the inhibition at 10 µM was 36%. For the same compound, the Emax in test [4] is 21%.
In the case of `CN1CCN(c2ccnc3[nH]c(-c4n[nH]c5ccc(-c6cncc(N)c6)cc45)cc23)CC1` [Compound 227, 5-(3-(4-(4-Methylpiperazin-1-yl)-1H-pyrrolo[2,3-b]pyridin-2-yl)-1H-indazol-5-yl)pyridin-3-amine], the EC50 in test [1] was 7340 nM; in the test on SW480 colon cancer cells it was above 10000 nM; in test [2], 1170 nM; in test [3], above 10000 nM; in test [4], 100 nM. In addition, the inhibition at 10 µM in the test with SW480 colon cancer cells stood at 42.3%; in test [3], 51.2%. Moreover, the Emax in test [4] was 50%.
As for `CN1CCN(c2ccnc3[nH]c(-c4n[nH]c5ccc(-c6cncc(CN7CCCC7)c6)cc45)cc23)CC1` [Compound 238, 3-(4-(4-Methylpiperazin-1l-yl)-1H-pyrrolo[2,3-b]pyridin-2-yl)-5-(5-(pyrrolidin-1-ylmethyl)pyridin-3-yl)-1H-indazole], the EC50 was above 10000 nM in test [1], 4340 nM in the test with SW480 colon cancer cells, 3480 nM in test [2] and 1920 nM in test [3]. In addition, the inhibition at 10 µM in test [1] was 29.4%. The Emax in test [4] was 22%.
Regarding `CN1CCN(c2ccnc3[nH]c(-c4n[nH]c5ccc(-c6cncc(CNCc7ccccc7)c6)cc45)cc23)CC1` [Compound 248, N-Benzyl-1-(5-(3-(4-(4-methylpiperazin-1-yl)-1H-pyrrolo[2,3-b]pyridin-2-yl)-1H-indazol-5-yl)pyridin-3-yl)methanamine], the EC50 is 7730 nM in test [1], 2170 nM in the test with SW480 colon cancer cells, 3370 nM in test [2] and 2260 nM in test [3]. In addition, the Emax in test [4] was 17%.
Turning to `Nc1cncc(-c2ccc3[nH]nc(-c4cc5cccnc5[nH]4)c3c2)c1` [Compound 255, 5-(3-(1H-Pyrrolo[2,3-b]pyridin-2-yl)-1H-indazol-5-yl)pyridin-3-amine], the EC50 in test [1] came to 15 nM; in the test with SW480 colon cancer cells, 632 nM; in test [2], 102 nM; in test [3], 138 nM. Moreover, in test [4], the Emax turned out to be 36%.
`CC(C)C(=O)Nc1cncc(-c2ccc3[nH]nc(-c4cc5cccnc5[nH]4)c3c2)c1` [Compound 261, N-(5-(3-(1H-Pyrrolo[2,3-b]pyridin-2-yl)-1H-indazol-5-yl)pyridin-3-yl) isobutyramide]: the EC50 was 9 nM in test [1]; 405 nM with SW480 colon cancer cells; 178 nM in test [2]; 102 nM in test [3]; 900 nM in test [4]. The Emax in test [4] came out at 131%.
Consider `c1cnc2[nH]c(-c3n[nH]c4ccc(-c5cncc(CN6CCCCC6)c5)cc34)cc2c1` [Compound 267, 5-(5-(Piperidin-1-ylmethyl)pyridin-3-yl)-3-(1H-pyrrolo[2,3-b]pyridin-2-yl)-1H-indazole], for which the EC50 in test [1] was determined as 177 nM; in the test on SW480 colon cancer cells, 675 nM; in test [2] it was 1670 nM; in test [3], 458 nM; in test [4], 10 nM. The Emax in test [4] worked out at 51%.
With `CCCCC(=O)Nc1cncc(-c2ccc3[nH]nc(-c4cc5cccnc5[nH]4)c3c2)c1` [Compound 271, N-(5-(3-(1H-Pyrrolo[2,3-b]pyridin-2-yl)-1H-indazol-5-yl)pyridin-3-yl) pentanamide], the EC50 came out at 23 nM in test [1], 1060 nM in the test on SW480 colon cancer cells, 324 nM in test [2] and 712 nM in test [3]. Besides, the Emax in test [4] worked out at 34%.
As for `O=C(Nc1cncc(-c2ccc3[nH]nc(-c4cc5cccnc5[nH]4)c3c2)c1)C1CCCC1` [Compound 274, N-(5-(3-(1H-Pyrrolo[2,3-b]pyridin-2-yl)-1H-indazol-5-yl)pyridin-3-yl) cyclopentanecarboxamide], the EC50 in test [1] came out at 18 nM; with SW480 colon cancer cells, 656 nM; in test [2], 271 nM; in test [3] it was 427 nM. Further, the Emax in test [4] is 30%.

Values taken from patent US10350199B2, “3-(1h-pyrrolo[2,3-b]pyridin-2-yl)-1h-indazoles and therapeutic uses thereof” (Samumed, LLC, priority 2015, dated 2019).
